These results are taken from US5130320A, “Glycosidase inhibiting 1,3-dideoxy-3-fluoronojirimycin” (Monsanto Company, priority 1991, dated 1992).

Structures are written as SMILES.

Common to all, as to assay type: biochemical
The test system of assay [1] is almond β-glucosidase. Description: β-Glucosidase inhibition assay, pH 4.8. The protocol: (§1) The glycosidase inhibition activity is determined by modifying an assay procedure described in Evans et al, Phytochemistry, 22, pp. 768-770 (1983). More particularly, yeast α-glucosidase and almond β-glucosidase activities were measured by the Evans et al method which was modified by assaying activities at pH 7.4 in N-2-hydroxyethylpiperazine-N-2-ethane sulfonic acid (HEPES) buffer, measuring in 96 well microtiter plates, and including 10% DMSO in control and test samples.
(§2) The release of p-nitrophenol from the substrate p-nitrophenylglycoside was measured spectrophotometrically in the presence and absence of test compound. Each assay included a known inhibitor of the enzyme as a standard. IC50 values were determined for compounds which inhibited the enzymes more than 50% at a 1 millimolar concentration.
To 100 ul 50 mM sodium citrate buffer, pH 4.8, in a microtiter plate, 20 ul test compound in DMSO (DMSO alone in control) and 20 ul (0.017 units) β-glucosidase (Sigma) in citrate buffer were added and pre-incubated at room temperature 15 minutes. 20 ul 2.50 mM p-nitrophenyl-β-D-glucopyranside in citrate buffer was added as substrate and incubated at room temperature minutes (reaction is linear for at least 30 minutes). 50 ul 0.4 M NaOH was added and the absorption change at 405 nm was determined utilizing a Biotek EIA Autoreader. Each sample was tested in triplicate. IC50 values were determined from the linear portion of the log concentration vs percent inhibition curve obtained from a minimum of 3 points. Castanospermine was used as standard inhibitor.

Assay [2] deals with almond β-glucosidase. Nature of the assay: β-Glucosidase inhibition assay, pH 7.4. On the procedure:
as §1, §2
To 100 ul 50 mM HEPES buffer, pH 7.4, in a microtiter plate, 20 ul test compound in DMSO (DMSO alone in control) and 40 ul (0.136 units) β-glucosidase (Sigma) in HEPES buffer were added and pre-incubated at room temperature 15 minutes. 40 ul 1.25 mM p-nitrophenyl-β-D-glucopyranoside in HEPES buffer was added as substrate and the absorbance change at 405 nm was monitored utilizing a Biotek EIA Autoreader. Absorption change was measured at 15 to 25 minutes (reaction is linear for at least 30 minutes). Each sample was tested in triplicate. IC50 values were determined from the linear portion of the log concentration vs percent inhibition curve obtained from a minimum of 3 points. Castanospermine was used as standard inhibitor.

The target in assay [3] is T1, ALPHA MANNOSIDASE (Canavalia ensiformis, UniProt C0HJB3).
T1 sequence (C0HJB3 1-981): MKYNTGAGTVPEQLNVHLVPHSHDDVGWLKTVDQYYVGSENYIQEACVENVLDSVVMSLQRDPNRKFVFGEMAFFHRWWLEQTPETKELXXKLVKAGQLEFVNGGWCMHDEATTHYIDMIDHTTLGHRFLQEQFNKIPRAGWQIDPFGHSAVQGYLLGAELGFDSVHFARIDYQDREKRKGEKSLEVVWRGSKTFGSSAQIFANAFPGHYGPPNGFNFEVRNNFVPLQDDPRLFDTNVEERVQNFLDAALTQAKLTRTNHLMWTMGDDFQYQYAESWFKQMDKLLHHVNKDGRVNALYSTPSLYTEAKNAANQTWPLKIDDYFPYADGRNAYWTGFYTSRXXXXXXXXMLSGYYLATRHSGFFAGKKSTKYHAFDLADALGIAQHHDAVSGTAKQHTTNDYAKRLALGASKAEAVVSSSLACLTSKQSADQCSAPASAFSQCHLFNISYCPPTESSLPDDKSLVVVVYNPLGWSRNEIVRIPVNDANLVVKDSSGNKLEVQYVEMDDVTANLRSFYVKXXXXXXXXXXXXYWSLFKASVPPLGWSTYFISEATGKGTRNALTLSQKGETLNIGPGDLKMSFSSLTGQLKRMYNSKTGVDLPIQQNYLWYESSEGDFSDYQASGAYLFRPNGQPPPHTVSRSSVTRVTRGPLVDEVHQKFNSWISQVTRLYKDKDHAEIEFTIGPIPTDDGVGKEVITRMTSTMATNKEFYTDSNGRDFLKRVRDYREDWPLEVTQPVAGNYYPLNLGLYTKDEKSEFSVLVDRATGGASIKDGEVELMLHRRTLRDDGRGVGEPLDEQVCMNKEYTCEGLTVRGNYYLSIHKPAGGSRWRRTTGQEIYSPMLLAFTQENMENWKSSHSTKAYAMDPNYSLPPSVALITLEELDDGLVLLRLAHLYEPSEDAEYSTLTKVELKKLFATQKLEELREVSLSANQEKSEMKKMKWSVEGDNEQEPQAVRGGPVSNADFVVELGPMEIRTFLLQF
Nature of the assay: Alpha mannosidase inhibition, pH 4.5. The note with it: for inhibition at 1000 µM: @ 1 mM; for inhibition at 5000 µM: @ 5 mM.

The next assay has as its target T2, yeast α-glucosidase (Saccharomyces cerevisiae, UniProt P53341).
T2 construct: purchased Sigma
Description: α-Glucosidase inhibition assay, pH 7.4. The note with it: read-out: ALPHA GLUCOSIDASE inhibition; for inhibition at 1000 µM: @ 1 mM; for inhibition at 5000 µM: @ 5 mM. On the procedure: as §1, §2
To 100 ul 50 mM HEPES buffer, pH 7.4, in a microtiter plate, 20 ul test compound in DMSO (DMSO alone in control)and 40 ul (0.013 units) yeast α-glucosidase (Sigma) in HEPES buffer were added and pre-incubated at room temperature 15 minutes. 40 ul 1.25 mM p-nitrophenyl-α-D-gl-ucopyranoside (Sigma) in HEPES buffer, as substrate was added and the absorbance change at 405 nm was monitored in a Biotek EIA Autoreader. Absorption change was measured at 15 to 25 minutes (reaction was linear for at least 30 minutes). Each sample was tested in triplicate. IC50 values were determined from the linear portion of the log concentration vs percent inhibition curve obtained from a minimum of 3 points. Deoxynojirimycin was used as standard inhibitor.

Assay [4] has as its target T1, ALPHA MANNOSIDASE
Nature of the assay: Alpha mannosidase inhibition, pH 7.4. To be noted: for inhibition at 1000 µM: @ 1 mM; for inhibition at 5000 µM: @ 5 mM.

T2 sequence (P53341 whole entry): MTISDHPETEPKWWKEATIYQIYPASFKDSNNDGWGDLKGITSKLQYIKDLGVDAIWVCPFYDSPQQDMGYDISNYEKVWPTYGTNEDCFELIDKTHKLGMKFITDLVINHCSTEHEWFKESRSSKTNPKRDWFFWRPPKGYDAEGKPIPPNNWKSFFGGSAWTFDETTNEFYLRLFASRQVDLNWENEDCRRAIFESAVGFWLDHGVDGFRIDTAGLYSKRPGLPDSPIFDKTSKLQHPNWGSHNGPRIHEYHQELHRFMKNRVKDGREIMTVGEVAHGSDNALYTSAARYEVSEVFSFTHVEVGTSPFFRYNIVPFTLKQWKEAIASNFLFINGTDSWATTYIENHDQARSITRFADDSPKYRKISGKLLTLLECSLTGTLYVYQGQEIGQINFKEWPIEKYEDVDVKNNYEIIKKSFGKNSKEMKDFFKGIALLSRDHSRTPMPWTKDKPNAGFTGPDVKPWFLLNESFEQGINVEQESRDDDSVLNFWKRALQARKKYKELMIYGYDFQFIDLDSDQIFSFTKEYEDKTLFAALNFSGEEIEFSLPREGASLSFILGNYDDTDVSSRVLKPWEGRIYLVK

By inhibition is commonly meant the drop in the measured response relative to a control, in per cent. In the case of `CCCCN1C[C@H](O)[C@@H](F)[C@H](O)[C@H]1CO` [Compound 2, N-butyl-1,3-dideoxy-3-fluoronojirimycin], the “BETA GLUCOSIDASE-pH 4.8 inhibition” value is on record as 8% with almond β-glucosidase [1] (@ 1 mM) and -10% with almond β-glucosidase [1] (@ 5 mM). For the same compound, the “BETA GLUCOSIDASE-pH 7.4 inhibition” value in the assay with almond β-glucosidase [2] (@ 1 mM) is 0%; in the assay with almond β-glucosidase [2] (@ 5 mM), 2%. Further, the results for the inhibition at 1000 µM against ALPHA MANNOSIDASE [3], at yeast α-glucosidase and at ALPHA MANNOSIDASE [4] were 6%, 11% and 7%, respectively. Moreover, the inhibition at 5000 µM turned out to be 5% on ALPHA MANNOSIDASE [3], 18% at yeast α-glucosidase and 11% on ALPHA MANNOSIDASE [4].

For `OC[C@H]1NC[C@H](O)[C@@H](F)[C@@H]1O` [Compound 1, 1,3-dideoxy-3-fluoronojirimycin], the “BETA GLUCOSIDASE-pH 4.8 inhibition” value in the assay with almond β-glucosidase [1] (@ 1 mM) turned out to be 4%; in the assay on almond β-glucosidase [1] (@ 5 mM), 10%. Also, the “BETA GLUCOSIDASE-pH 7.4 inhibition” value came out at 3% in the assay with almond β-glucosidase [2] (@ 1 mM) and 24% in the assay on almond β-glucosidase [2] (@ 5 mM). Also, the figures for the inhibition at 1000 µM against ALPHA MANNOSIDASE [3], on yeast α-glucosidase and against ALPHA MANNOSIDASE [4] were 11%, 26% and 10%, respectively. The inhibition at 5000 µM amounted to 19% against ALPHA MANNOSIDASE [3], 63% at yeast α-glucosidase and 30% against ALPHA MANNOSIDASE [4].
